Patent US12459974B2, “Bicyclic peptide ligands specific for Nectin-4” (priority 2018, dated 2025)
*1 amine or outer side, *2 acyl side, *3 side chain or, on linkers, in order; H or OH if unused. Where a SMILES comes first, the peptide text is derived from it. Bridges are numbered along the chain shown (N, C = ends). Roman numbers before positions name the chains, in order. [ ]: non-standard residue; d: D form. The star is where a group is joined. TATA = O=C(CC[*:1])N1CN(C(=O)CC[*:2])CN(C(=O)CC[*:3])C1; Dolaproine = CO[C@@H]([C@@H]1CCCN1)[C@@H](C)C(=O)O; Dil = CC[C@H](C)[C@H](NC)[C@@H](CC(=O)O)OC; X3 = O=C(CCCC(=O)[*:2])NCCC(=O)[*:1]; PABC = O=C(OCc1ccc(N[*:1])cc1)[*:2]; X4 = C[C@@H](N*)[C@@H](O)c1ccccc1; hArg = N=C(N)NCCCC[C@H](N)C(=O)O; Cit = NC(=O)NCCC[C@H](N)C(=O)O; NMeV = CN[C@H](C(=O)O)C(C)C; Sar = CNCC(=O)O

What was measured:
human Nectin-4 [1] = biological target: T1, human Nectin-4 (Homo sapiens, UniProt Q96NY8); assay: Nectin-4 competition binding assay (fluorescence polarisation); conditions: competition with fluorescent peptide SEQ ID NO: 217; read-out: Ki
T1 sequence (Q96NY8 32-510): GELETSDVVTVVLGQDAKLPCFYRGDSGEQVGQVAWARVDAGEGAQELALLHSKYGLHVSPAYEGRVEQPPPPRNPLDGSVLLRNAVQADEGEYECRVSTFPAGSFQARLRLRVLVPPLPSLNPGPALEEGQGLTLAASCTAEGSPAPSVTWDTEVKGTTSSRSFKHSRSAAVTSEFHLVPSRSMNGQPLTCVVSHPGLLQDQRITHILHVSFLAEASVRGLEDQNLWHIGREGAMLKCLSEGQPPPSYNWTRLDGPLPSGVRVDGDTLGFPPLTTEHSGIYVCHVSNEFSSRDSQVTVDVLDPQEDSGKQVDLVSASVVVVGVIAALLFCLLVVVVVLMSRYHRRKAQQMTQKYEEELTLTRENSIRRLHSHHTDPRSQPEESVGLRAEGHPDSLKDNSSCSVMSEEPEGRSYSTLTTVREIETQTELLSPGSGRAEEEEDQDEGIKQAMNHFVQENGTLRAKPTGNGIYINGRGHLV
Summary of the method: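 Ki derived by cubic-equation fit of mP data, with tracer peptide concentration, its Kd and Nectin-4 level as fixed inputs. Competition set up by adding 2-fold peptide dilutions (≤5% DMSO), then Nectin-4, then fluorescent peptide; polarisation measured as for direct binding.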

human Nectin-4 [2] = biological target: T2, human Nectin-4 (Homo sapiens, UniProt Q96NY8); assay: Nectin-4 Biacore SPR binding assay
T2 sequence (Q96NY8 32-349): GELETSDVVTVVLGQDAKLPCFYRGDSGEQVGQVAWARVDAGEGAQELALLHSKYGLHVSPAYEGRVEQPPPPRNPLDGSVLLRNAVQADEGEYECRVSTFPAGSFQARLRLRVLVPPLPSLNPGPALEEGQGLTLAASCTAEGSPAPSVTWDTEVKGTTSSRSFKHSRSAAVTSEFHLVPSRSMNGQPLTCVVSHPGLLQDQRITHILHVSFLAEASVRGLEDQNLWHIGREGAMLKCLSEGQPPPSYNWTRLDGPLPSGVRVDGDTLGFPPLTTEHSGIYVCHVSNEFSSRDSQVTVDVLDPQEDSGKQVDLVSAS

human Nectin-4 [3] = biological target: T1, human Nectin-4; assay: Nectin-4 direct binding assay (fluorescence polarisation); conditions: fluorescently tagged peptide, TATA scaffold
Method: Affinity of the peptides of the invention for human Nectin-4 (Ki) was determined using a fluorescence polarisation assay, in accordance with the methods disclosed in WO 2016/067035. Peptides of the invention with a fluorescent tag (either fluorescein, SIGMA or Alexa Fluor488™, Fisher Scientific) were diluted to 2.5 nM in PBS with 0.01% tween 20 or 50 mM HEPES with 100 mM NaCl and 0.01% tween pH 7.4 (both referred to as assay buffer). This was combined with a titration of protein in the same assay buffer as the peptide to give 1 nM peptide in a total volume of 25 μL in a black walled and bottomed low bind low volume 384 well plates, typically 5 μL assay buffer, 10 μL protein then 10 μL fluorescent peptide. […] Measurements were conducted on a BMG PHERAstar FS equipped with an “FP 485 520 520” optic module which excites at 485 nm and detects parallel and perpendicular emission at 520 nm. The PHERAstar FS was set at 25° C. with 200 flashes per well and a positioning delay of 0.1 second, with each well measured at 5 to 10 minute intervals for 60 minutes. The gain used for analysis was determined for each tracer at the end of the 60 minutes where there was no protein in the well. Data was analysed using Systat Sigmaplot version 12.0. mP values were fit to a user defined quadratic equation to generate a Kd value: f=ymin+(ymax−ymin)/Lig*((x+Lig+Kd)/2-sqrt((((x+Lig+Kd)/2)^2)−(Lig*x))). […]

HT-1376 xenograft = assay: Example 2: in vivo efficacy in HT-1376 xenograft (bladder cancer model) in CB17-SCID mice; conditions: 1 mg/kg
Method: The major endpoint was to see if the tumor growth could be delayed or mice could be cured. Tumor volume was measured three times weekly in two dimensions using a caliper, and the volume was expressed in mm^3 using the formula: V=0.5 a×b^2 where a and b are the long and short diameters of the tumor, respectively. The tumor size was then used for calculations of T/C value. The T/C value (in percent) is an indication of antitumor effectiveness; T and C are the mean volumes of the treated and control groups, respectively, on a given day. TGI was calculated for each group using the formula: TGI (%)=[1−(Ti−T0)/(Vi−V0)]×100; Ti is the average tumor volume of a treatment group on a given day, T0 is the average tumor volume of the treatment group on the day of treatment start, Vi is the average tumor volume of the vehicle control group on the same day with Ti, and V0 is the average tumor volume of the vehicle group on the day of treatment start.
A one-way ANOVA was performed to compare tumor volume among groups, and when a significant F-statistics (a ratio of treatment variance to the error variance) was obtained, comparisons between groups were carried out with Games-Howell test. […] P<0.05 was considered to be statistically significant.
• Species: Mus Musculus • Strain: CB17-SCID • Age: 6-8 weeks • Sex: female • Body weight: 18-22 g • Number of animals: 21-41 mice plus spare • Animal supplier: Shanghai LC Laboratory Animal Co., LTD.
The HT-1376 tumor cells were maintained in vitro as a monolayer culture in EMEM medium supplemented with 10% heat inactivated fetal bovine serum at 37° C. in an atmosphere of 5% CO2 in air. The tumor cells were routinely subcultured twice weekly by trypsin-EDTA treatment.
Each mouse was inoculated subcutaneously at the right flank with HT-1376 tumor cells (5×10^6) in 0.2 ml of PBS with matrigel (1:1) for tumor development. Animals were randomized when the average tumor volume reached 153-164 mm^3.
Tumor growth inhibition rate for Test articles in the HT-1376 xenograft model was calculated based on tumor volume measurements at day 21 after the start of treatment.

SMILES	Ki (human Nectin-4 [3])	Ki (human Nectin-4 [1])	Kd (human Nectin-4 [2])	bodyweight (in words) (HT-1376 xenograft)
CC[C@H](C)[C@@H]1NC(=O)[C@@H]2CCCN2C(=O)[C@H](Cc2c[nH]c3ccccc23)NC(=O)[C@H](CO)NC(=O)[C@H](Cc2c[nH]c3ccccc23)NC(=O)[C@H](CC(N)=O)NC(=O)[C@H](CCCCN)NC(=O)[C@H](CCSC)NC(=O)[C@@H]2CSCCC(=O)N3CN(CN(C3)C(=O)CCSC[C@H](NC(=O)[C@H](C)N)C(=O)N3CCC[C@H]3C(=O)N[C@@H](Cc3ccccc3)C(=O)NCC(=O)N2)C(=O)CCSC[C@@H](C(=O)N[C@@H](C)C(N)=O)NC(=O)[C@H](Cc2c[nH]c3ccccc23)NC1=O [BCY428, A-(SEQ ID NO: 1)-A]		61 nM	334 nM	
CC[C@H](C)[C@@H]1NC(=O)[C@@H]2CCCN2C(=O)[C@H](Cc2c[nH]c3ccccc23)NC(=O)[C@H](CO)NC(=O)[C@H](Cc2c[nH]c3ccccc23)NC(=O)[C@H](CC(N)=O)NC(=O)[C@H](CCCCN)NC(=O)[C@H](CCSC)NC(=O)[C@@H]2CSCCC(=O)N3CN(CN(C3)C(=O)CCSC[C@H](NC(C)=O)C(=O)N3CCC[C@H]3C(=O)N[C@@H](Cc3ccccc3)C(=O)NCC(=O)N2)C(=O)CCSC[C@@H](C(N)=O)NC(=O)[C@H](Cc2c[nH]c3ccccc23)NC1=O [BCY7390, Ac-(SEQ ID NO: 1)] (Ac-CPFGCMKNWSWPIWC-NH2; linker 1-5-15 via TATA; C-terminus assumed)		17.1 nM	40.3 nM	
CC[C@H](C)[C@@H]1NC(=O)[C@@H]2CCCN2C(=O)[C@H](Cc2c[nH]c3ccccc23)NC(=O)[C@H](CO)NC(=O)[C@H](Cc2c[nH]c3ccccc23)NC(=O)[C@H](CC(N)=O)NC(=O)[C@H](CCCCN)NC(=O)[C@H](CCSC)NC(=O)[C@@H]2CSCCC(=O)N3CN(CN(C3)C(=O)CCSC[C@H](NC(C)=O)C(=O)N3CCC[C@H]3C(=O)N[C@@H](Cc3ccccc3)C(=O)NCC(=O)N2)C(=O)CCSC[C@@H](C(=O)N[C@H](C(=O)N[C@@H](CC(N)=O)C(=O)N[C@@H](CCCCN)C(N)=O)[C@@H](C)O)NC(=O)[C@H](Cc2c[nH]c3ccccc23)NC1=O [BCY7391, Ac-(SEQ ID NO: 1)-TNK] (Ac-CPFGCMKNWSWPIWCTNK-NH2; linker 1-5-15 via TATA; C-terminus assumed)		13.3 nM	59.8 nM	
CC(=O)N[C@H]1CSCCC(=O)N2CN3CN(C2)C(=O)CCSC[C@H](NC(=O)[C@H](CC(=O)O)NC(=O)[C@H](Cc2ccc(O)cc2)NC(=O)[C@H](CO)NC(=O)[C@H]([C@@H](C)O)NC(=O)[C@H]([C@@H](C)O)NC(=O)[C@H](C(C)C)NC1=O)C(=O)N[C@@H](Cc1c[nH]c2ccccc12)C(=O)N[C@@H](C(C)C)C(=O)N[C@@H]([C@@H](C)O)C(=O)N[C@@H](CC(C)C)C(=O)NCC(=O)N[C@@H](Cc1c[nH]cn1)C(=O)N[C@H](C(=O)N[C@@H](CO)C(=O)N[C@@H](CCCNC(=N)N)C(=O)N[C@@H](Cc1ccccc1)C(N)=O)CSCCC3=O [BCY7393, Ac-(SEQ ID NO: 37)-SRF] (Ac-CVTTSYDCWVTLGHCSRF-NH2; linker 1-8-15 via TATA; C-terminus assumed)		232 nM	1380 nM	
CC[C@H](C)[C@@H]([C@@H](CC(=O)N1CCC[C@H]1[C@H](OC)[C@@H](C)C(=O)N[C@H](C)[C@@H](O)c1ccccc1)OC)N(C)C(=O)[C@@H](NC(=O)[C@H](C(C)C)N(C)C(=O)OCc1ccc(NC(=O)[C@H](CCCNC(N)=O)NC(=O)[C@@H](NC(=O)CCCC(=O)NCCC(=O)N(C)CC(=O)N(C)CC(=O)N(C)CC(=O)N(C)CC(=O)N(C)CC(=O)N(C)CC(=O)N(C)CC(=O)N(C)CC(=O)N(C)CC(=O)N(C)CC(=O)N[C@H]2CSCCC(=O)N3CN4CN(C3)C(=O)CCSC[C@H](NC(=O)[C@@H](CC(=O)O)NC(=O)[C@H](Cc3ccccc3)NC(=O)[C@@H]3CCCN3C2=O)C(=O)N[C@@H](CCSC)C(=O)N[C@@H](CCCCNC(=N)N)C(=O)N[C@@H](CC(N)=O)C(=O)N[C@@H](Cc2c[nH]c3ccccc23)C(=O)N[C@@H](CO)C(=O)N[C@@H]([C@@H](C)O)C(=O)N2CCC[C@H]2C(=O)N[C@@H]([C@@H](C)CC)C(=O)N[C@@H](Cc2c[nH]c3ccccc23)C(=O)N[C@H](C(N)=O)CSCCC4=O)C(C)C)cc1)C(C)C [BCY7825, MMAE-PABC-Cit-Val-Glutaryl-BCY7814] (I: [Sar][Sar][Sar][Sar][Sar][Sar][Sar][Sar][Sar][Sar]CPF[dD]CM[hArg]NWSTPIWC-NH2 / II: V[Cit][PABC][NMeV]V[Dil][Dolaproine]-X4; linker I:11-I:15-I:25 via TATA; linker I:N-II:N via X3)			11.6 nM	maintained the bodyweight well
CC(=O)N[C@H]1CSCCC(=O)N2CN3CN(C2)C(=O)CCSC[C@H](NC(=O)[C@@H](CC(=O)O)NC(=O)[C@H](Cc2ccccc2)NC(=O)[C@@H]2CCCN2C1=O)C(=O)N[C@@H](CC(C)C)C(=O)N[C@@H](CCCCNC(=N)N)C(=O)N[C@@H](CC(N)=O)C(=O)N[C@@H](Cc1c[nH]c2ccccc12)C(=O)N[C@@H](CO)C(=O)N[C@@H]([C@@H](C)O)C(=O)N1CCC[C@H]1C(=O)N1CCC[C@H]1C(=O)N[C@@H](Cc1c[nH]c2ccccc12)C(=O)N[C@H](C(N)=O)CSCCC3=O [BCY8038, Ac-(SEQ ID NO: 160)] (Ac-CPF[dD]CL[hArg]NWSTPPWC-NH2; linker 1-5-15 via TATA; C-terminus assumed)		8 nM	44.5 nM	

Continued, in another order:

Ki (human Nectin-4 [3])	SMILES	Ki (human Nectin-4 [1])	Kd (human Nectin-4 [2])	bodyweight (in words) (HT-1376 xenograft)
269 nM	CC[C@H](C)[C@@H]1NC(=O)[C@H](CCCNC(=N)N)NC(=O)[C@H](CC(=O)O)NC(=O)[C@@H]2CSCCC(=O)N3CN(CN(C3)C(=O)CCSC[C@@H](C(=O)N[C@@H](C)C(N)=O)NC1=O)C(=O)CCSC[C@H](NC(=O)[C@H](Cc1c[nH]c3ccccc13)NC(=O)[C@H](CC(=O)O)NC(=O)[C@@H](N)C(C)C)C(=O)N[C@@H](C)C(=O)N1CCC[C@H]1C(=O)N[C@@H](CC(C)C)C(=O)N[C@@H](CC(=O)O)C(=O)N[C@@H](CC(=O)O)C(=O)N[C@@H](Cc1ccc(O)cc1)C(=O)N[C@@H](Cc1c[nH]c3ccccc13)C(=O)N2 [BCY462, VDW-(SEQ ID NO: 33)-A] (H-VDWCAPLDDYWCDRICA-NH2; linker 4-12-16 via TATA; N-terminus and C-terminus assumed)			
72 nM	CC[C@H](C)[C@@H]1NC(=O)[C@H](CCCNC(=N)N)NC(=O)[C@H](CC(N)=O)NC(=O)[C@@H]2CSCCC(=O)N3CN(CN(C3)C(=O)CCSC[C@@H](C(=O)N[C@@H](C)C(N)=O)NC1=O)C(=O)CCSC[C@H](NC(=O)[C@H](Cc1c[nH]c3ccccc13)NC(=O)[C@H](CCCCN)NC(=O)[C@@H](N)CCC(N)=O)C(=O)N[C@@H](C)C(=O)N1CCC[C@H]1C(=O)N[C@@H](CC(C)C)C(=O)N[C@@H](CO)C(=O)N[C@@H](CC(=O)O)C(=O)N[C@@H](Cc1ccc(O)cc1)C(=O)N[C@@H](Cc1c[nH]c3ccccc13)C(=O)N2 [BCY3400, QKW-(SEQ ID NO: 34)-A] (H-QKWCAPLSDYWCNRICA-NH2; linker 4-12-16 via TATA; N-terminus and C-terminus assumed)	47 nM		
